Results published in US20250041232A1, “MICROSPHERES COMPRISING HIGH-DOSE VARENICLINE, METHOD FOR PREPARING SAME, AND PHARMACEUTICAL COMPOSITION COMPRISING SAME” (AULBIO CO., LTD., priority 2021, published 2025).

Test: Measurement of varenicline loading amount and encapsulation efficiency in microspheres (HPLC)
Type: physicochemical
Details: microspheres dissolved in acetonitrile/80% methanol, HPLC-UV
Method: About 10 mg of the microspheres prepared in Example 2 and Comparative Examples 1 and 2 were taken, placed in a 20 mL flask, and completely dissolved in 2 mL of acetonitrile (manufacturer: Honeywell). It was adjusted to the mark with 80% methanol (manufacturer: Honeywell) and filtered through a 0.45 μm syringe filter. This solution was detected with an ultraviolet-visible spectrophotometer using HPLC (equipment name: Agilent). L1 (inner diameter 4.6 mm×150 mm, thickness 5 μm) was used as the column.

- Encapsulation efficiency (%): more than 90%
Substance: varenicline pamoate salt
